ChEMBL document CHEMBL5726941, “Naphthyridine compounds, medical combinations and use thereof” (2018)

Molecular target: Hepatocyte growth factor receptor (Homo sapiens, UniProt P08581)
Assay: Inhibition Assay: A study on inhibition of protein kinases activity at in vitro biochemical levelMaterial and method: kinases such as c-Met, VEGFR-2, Axl and RET, obtained from Invitrogen; HTRF KinEASE; TK kit (Cisbio Company); 384-well plate (Greiner Company); ATP (Sigma Company), MgCl2 (Sigma Company); PHERAstar FS multifunctional plate reader (BMG Company); conventional centrifuge (StaiteXiangyi Company); incubator (Binder Company). […] Meanwhile, 4 μL 1.33× enzymatic buffer is added as the negative control. 2 μL compound working solution is added into each well, and 2 μL 8% DMSO in water is added as zero compound level control (i.e., positive control). At 25° C. (or 30 C), incubate for 5-10 min; add 2 μL substrate working solution into each well to initiate the enzymatic reaction. Allow to react while shaking at 25° C. (or 30° C.) for 15-60 min.

Sequence of Hepatocyte growth factor receptor (P08581 whole entry): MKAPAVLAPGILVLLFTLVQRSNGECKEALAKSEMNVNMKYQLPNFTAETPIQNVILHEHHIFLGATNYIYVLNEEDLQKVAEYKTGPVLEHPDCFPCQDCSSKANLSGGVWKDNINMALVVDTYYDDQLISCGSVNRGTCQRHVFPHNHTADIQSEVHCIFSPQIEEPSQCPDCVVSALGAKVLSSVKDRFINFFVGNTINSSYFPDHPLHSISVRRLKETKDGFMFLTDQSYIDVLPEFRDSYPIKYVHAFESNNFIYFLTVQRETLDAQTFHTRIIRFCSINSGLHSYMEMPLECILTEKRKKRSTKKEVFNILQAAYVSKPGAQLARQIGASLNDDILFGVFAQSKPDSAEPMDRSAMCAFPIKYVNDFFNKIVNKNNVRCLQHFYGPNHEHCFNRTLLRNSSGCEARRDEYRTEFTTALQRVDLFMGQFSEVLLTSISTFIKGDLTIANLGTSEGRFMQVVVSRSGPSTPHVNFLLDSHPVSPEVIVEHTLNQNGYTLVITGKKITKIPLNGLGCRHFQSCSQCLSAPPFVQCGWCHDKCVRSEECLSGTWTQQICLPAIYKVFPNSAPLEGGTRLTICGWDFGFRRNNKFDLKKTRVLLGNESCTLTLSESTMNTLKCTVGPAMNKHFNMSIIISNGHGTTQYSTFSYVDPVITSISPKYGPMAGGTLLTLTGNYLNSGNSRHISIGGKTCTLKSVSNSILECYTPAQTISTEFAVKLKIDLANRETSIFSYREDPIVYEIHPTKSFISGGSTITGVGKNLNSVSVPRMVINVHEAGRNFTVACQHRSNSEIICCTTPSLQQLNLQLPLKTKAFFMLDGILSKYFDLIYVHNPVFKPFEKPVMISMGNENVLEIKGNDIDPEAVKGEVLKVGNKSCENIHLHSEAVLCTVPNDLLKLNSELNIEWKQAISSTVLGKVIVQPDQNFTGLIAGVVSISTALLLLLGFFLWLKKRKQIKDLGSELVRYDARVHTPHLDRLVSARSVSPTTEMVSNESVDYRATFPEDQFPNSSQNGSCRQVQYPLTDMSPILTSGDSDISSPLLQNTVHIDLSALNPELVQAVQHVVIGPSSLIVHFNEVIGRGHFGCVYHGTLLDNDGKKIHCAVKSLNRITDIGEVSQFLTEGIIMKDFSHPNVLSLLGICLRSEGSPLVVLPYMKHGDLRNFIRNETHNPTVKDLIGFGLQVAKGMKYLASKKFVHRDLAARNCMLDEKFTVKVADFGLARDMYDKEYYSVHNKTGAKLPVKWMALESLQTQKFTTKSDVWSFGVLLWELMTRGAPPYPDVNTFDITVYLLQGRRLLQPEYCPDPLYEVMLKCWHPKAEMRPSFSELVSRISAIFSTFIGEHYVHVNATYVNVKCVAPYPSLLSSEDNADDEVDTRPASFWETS

IC50: 143 nM
SMILES: COc1cc2nccc(Oc3ccc(Nc4nccc5[nH]cc(-c6ccc(F)cc6)c(=O)c45)cc3F)c2cc1OC
